Experimental findings from paper PMC12486854, “Targeting mycobacterial transpeptidases: evaluating the roles of Ldt and PBP inhibition in suppressing Mycobacterium smegmatis” (Antimicrobial Agents and Chemotherapy, 2025) are described below.

By pIC50 is commonly meant the IC50 on a negative log10 scale, so that one unit is a factor of ten.

The subject of test [1] is Mycobacterium smegmatis (Msm). The arrangement: broth microdilution MIC, resazurin read-out, 4 days at 37 C. The note with it: without clavulanic acid; 96 h.
For test [2], the system named is Mycobacterium smegmatis (Msm). In words: microbe, parasite or virus in culture. The note with it: without clavulanic acid, 96 h.
The target in test [3] is T1, Mtb PBP3 Δ1-122 (Mycobacterium tuberculosis, UniProt L0T911).
T1 construct: gene pbpB; N-terminally truncated (residues 1-122 removed), codon-optimised gene in pCold, E. coli BL21(DE3), His tag cleaved with 3C protease, calculated mass 60,148 Da, observed 60,152 Da
T1 sequence (L0T911 whole entry, looked up, stated change not applied, the tested form may be a part): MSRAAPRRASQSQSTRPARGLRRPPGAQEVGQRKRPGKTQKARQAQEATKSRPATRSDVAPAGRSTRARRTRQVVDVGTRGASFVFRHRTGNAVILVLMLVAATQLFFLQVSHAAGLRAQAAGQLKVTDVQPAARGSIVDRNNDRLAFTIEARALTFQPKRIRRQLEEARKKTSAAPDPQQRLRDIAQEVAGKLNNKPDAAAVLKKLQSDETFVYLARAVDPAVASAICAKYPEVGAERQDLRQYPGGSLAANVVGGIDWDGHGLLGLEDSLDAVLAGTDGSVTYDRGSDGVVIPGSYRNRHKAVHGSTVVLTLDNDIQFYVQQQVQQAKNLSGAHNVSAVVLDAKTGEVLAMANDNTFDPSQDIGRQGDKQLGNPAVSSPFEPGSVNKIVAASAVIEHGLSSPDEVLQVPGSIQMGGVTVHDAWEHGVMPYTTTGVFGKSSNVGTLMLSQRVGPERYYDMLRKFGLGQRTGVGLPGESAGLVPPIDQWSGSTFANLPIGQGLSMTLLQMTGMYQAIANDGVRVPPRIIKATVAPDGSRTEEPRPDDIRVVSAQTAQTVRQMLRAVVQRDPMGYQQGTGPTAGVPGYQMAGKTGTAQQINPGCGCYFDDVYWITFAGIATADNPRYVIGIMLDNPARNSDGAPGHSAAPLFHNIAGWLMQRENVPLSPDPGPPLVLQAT
In words: biochemical.

Test [4] concerns the target T1, Mtb PBP3 Δ1-122. Briefly: biochemical. Type of test: biochemical.
Test [5] concerns the target T2, LdtMt2 (Mycobacterium tuberculosis, UniProt I6Y9J2).
T2 construct: gene ldtB
In words: biochemical.

Test [6] concerns the target T2, LdtMt2. In words: biochemical. This is another data set of the same source.
In test [7] the test system is Mycobacterium smegmatis (Msm). The note with it: without clavulanic acid; 96 h.
[8] abbreviates: 10 min pre-incubation, read-out: pIC50 LdtMt2 (converted).

Where two headings read alike, the source gives them in different places.

T2 sequence (I6Y9J2 35-408): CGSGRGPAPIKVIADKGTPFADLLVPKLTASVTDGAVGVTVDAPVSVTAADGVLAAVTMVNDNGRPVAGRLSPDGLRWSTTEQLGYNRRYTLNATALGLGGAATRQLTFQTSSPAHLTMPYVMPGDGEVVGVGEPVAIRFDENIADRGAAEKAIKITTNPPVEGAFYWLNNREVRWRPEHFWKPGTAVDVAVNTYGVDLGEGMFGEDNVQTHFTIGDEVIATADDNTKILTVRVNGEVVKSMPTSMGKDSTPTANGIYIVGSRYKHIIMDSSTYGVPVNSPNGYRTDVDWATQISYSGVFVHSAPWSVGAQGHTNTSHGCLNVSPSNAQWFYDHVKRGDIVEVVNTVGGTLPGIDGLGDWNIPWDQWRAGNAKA

For the compound `CC[C@@H](CO)NCCN[C@@H](CC)CO` [Ethambutol], the “MIC Msm (µg/mL), no clavulanic acid” value in test [1] was found to be 0.25 µg/mL.
Consider `C[C@@H](O)[C@H]1C(=O)N2C(C(=O)O)=C([C@H]3CCCO3)S[C@H]12` [compound 1, faropenem], for which the “MIC Msm (µg/mL), no clavulanic acid” value in test [2] turned out to be 16 µg/mL.
In the case of `C[C@@H](O)[C@H]1C(=O)N2C(C(=O)O)=C(SCCN=CN)C[C@H]12` [compound 2, imipenem], the “MIC Msm (µg/mL), no clavulanic acid” value in test [2] amounted to 0.125 µg/mL. At Mtb PBP3 Δ1-122 [3], this compound had an IC50 of 0.501 µM.
`CC(C)(O/N=C(\C(=O)N[C@@H]1C(=O)N2C(C(=O)[O-])=C(C[n+]3ccccc3)CS[C@H]12)c1csc(N)n1)C(=O)O` [compound 6, ceftazidime] had an IC50 at Mtb PBP3 Δ1-122 [4] of 3.16 µM. Also, the “MIC Msm (µg/mL), no clavulanic acid” value in test [2] was over 128 µg/mL.
Turning to `CO/N=C(\C(=O)N[C@@H]1C(=O)N2C(C(=O)O)=C(CSc3nc(=O)c(=O)[nH]n3C)CS[C@H]12)c1csc(N)n1` [compound 7, ceftriaxone], the “MIC Msm (µg/mL), no clavulanic acid” value in test [2] was over 128 µg/mL.
Take `CC1(C)S[C@@H]2[C@H](NC(=O)[C@H](N)c3ccccc3)C(=O)N2[C@H]1C(=O)O` [compound 11, ampicillin]: in test [2], the “MIC Msm (µg/mL), no clavulanic acid” value was over 128 µg/mL.
The same measure, in the same setting: for `CC1(C)S[C@@H]2[C@H](NC(=O)[C@H](N)c3ccc(O)cc3)C(=O)N2[C@H]1C(=O)O` [compound 12, amoxicillin] the value was over 128 µg/mL.
The compound `CC1(C)S[C@@H]2[C@H](NC(=O)C(C(=O)O)c3ccccc3)C(=O)N2[C@H]1C(=O)O` (stereo partly drawn) [compound 15, carbenicillin] showed an IC50 at Mtb PBP3 Δ1-122 [4] of 3.98 µM.
The same measure, in the same setting: for `C[C@H]1[C@H](NC(=O)/C(=N\OC(C)(C)C(=O)O)c2csc(N)n2)C(=O)N1S(=O)(=O)O` [compound 16, aztreonam] the value was 158 µM.
Turning to `O=C(O)[C@H]1/C(=C/CO)O[C@@H]2CC(=O)N21` [compound 17, clavulanic acid], the MIC in test [2] (Mycolicibacterium smegmatis, read-out: MIC Msm (µg/mL), no clavulanic acid) was found to be 128 µg/mL. The compound further came in with an IC50 on Mtb PBP3 Δ1-122 [3] of over 398 µM.
At Mtb PBP3 Δ1-122 [4], `CCC(C)[C@H](NC(=O)OCc1ccccc1)C(=O)CCl` (stereo partly drawn) [compound 18, 18] had a negative logarithm of the IC50 (pIC50) of under 3.4.
Take `CCC(C)[C@H](NC(=O)OCc1ccccc1)C(=O)CCl` (stereo partly drawn) [compound 18]: the “MIC Msm (µg/mL), no clavulanic acid” value in test [2] is over 128 µg/mL.
For `O=C1C=CC(=O)N1c1ccc(Oc2ccccc2)c(Cl)c1` [compound 19], the “MIC Msm (µg/mL), no clavulanic acid” value in test [2] is 64 µg/mL. This compound also gave an IC50 at Mtb PBP3 Δ1-122 [3] of 100 µM.
For `O=C(OCN1C(=O)C=CC1=O)c1ccccc1` [compound 20], in test [2], the “MIC Msm (µg/mL), no clavulanic acid” value turned out to be 64 µg/mL.
`O=c1c2cc(Cl)c(Cl)cc2sn1CCO` [compound 21, 21]: the “MIC Msm (µg/mL), no clavulanic acid” value in test [2] came to 32 µg/mL. The same compound showed an IC50 at Mtb PBP3 Δ1-122 [3] of 79.4 µM.
At Mtb PBP3 Δ1-122 [4], `COc1ccc(CN2C(=O)C(=O)c3cc(Br)cc(C)c32)cc1OC` [compound 22, 22] had an IC50 of over 398 µM.
Consider `COc1ccc(CN2C(=O)C(=O)c3cc(Br)cc(C)c32)cc1OC` [compound 22], for which the “MIC Msm (µg/mL), no clavulanic acid” value in test [2] is over 128 µg/mL.
The same measure, in the same setting: for `O=C1C(=O)N(Cc2cccc3ccccc23)c2ccc(Br)cc21` [compound 23, 23] the value was over 128 µg/mL.
In the case of `NC(=O)OCC1=C(C(=O)O)N2C(=O)C(NC(=O)C(=CS(=O)(=O)CCc3ccc(O)c(O)c3)c3csc(N)n3)C2SC1` (stereo not drawn) [compound 24, 24], at Mtb PBP3 Δ1-122 [4], the pIC50 is given as 6.1 ± 0.089.
On to `N#Cn1c(-c2cc(F)cc(C(F)(F)F)c2)nc2ccccc21` [compound 25, 25], for which the IC50 against Mtb PBP3 Δ1-122 [4] is over 398 µM. Moreover, the “MIC Msm (µg/mL), no clavulanic acid” value in test [2] was found to be 48 µg/mL.
Take `N#Cn1c(-c2ccncc2)nc2ccc(C(=O)c3ccccc3)cc21` [compound 26]: the “MIC Msm (µg/mL), no clavulanic acid” value in test [2] was 16 µg/mL.
Regarding `O=C(C1OC1c1ccccc1)C1OC1c1ccccc1` (stereo not drawn) [compound 28, 28], on Mtb PBP3 Δ1-122 [4], the pIC50 is under 3.4.
Still for that read-out and setting: the value for `COc1cccc(NC(=O)C(Cl)=C(Cl)S(=O)(=O)Cc2ccccc2Cl)n1` [compound 29, 29] was under 3.4.
`NC(=O)C=CC(=O)Nc1ccc(Cl)cc1` [compound 30, 30]: the IC50 on Mtb PBP3 Δ1-122 [4] is over 398 µM.
Consider `NC(=O)C=CC(=O)Nc1ccc(Cl)cc1` [compound 30], for which the “MIC Msm (µg/mL), no clavulanic acid” value in test [2] was over 128 µg/mL.
Regarding `O=[N+]([O-])c1ccc(S(=O)(=O)c2ccccc2)nc1` [compound 31, 31], the IC50 on LdtMt2 [5] (setting [8]) was 5.01 µM; at Mtb PBP3 Δ1-122 [4], over 398 µM. On LdtMt2 [6] (read-out: kinact/KI LdtMt2), the kinact/KI was 52.6 M⁻¹ s⁻¹. In addition, in test [2], the “MIC Msm (µg/mL), no clavulanic acid” value turned out to be 8 µg/mL.
Regarding `O=[N+]([O-])c1ccc(S(=O)(=O)c2ccccc2)cn1` [compound 32, 32], the IC50 at LdtMt2 [5] (setting [8]) was 25.1 µM. In addition, the kinact/KI on LdtMt2 [6] (read-out: kinact/KI LdtMt2) was under 10 M⁻¹ s⁻¹. Besides, in test [7], the “MIC Msm (µg/mL), no clavulanic acid” value stood at 4 µg/mL.
As to `Cc1ccc(S(=O)(=O)c2ccc([N+](=O)[O-])cn2)cc1` [compound 33, 33], the kinact/KI on LdtMt2 [6] (read-out: kinact/KI LdtMt2) came to 51.9 M⁻¹ s⁻¹.
On the same count and under the same terms, the value for `O=[N+]([O-])c1ccc(S(=O)(=O)c2ccc(Cl)cc2)nc1` [compound 34, 34] was 86.9 M⁻¹ s⁻¹; that for `O=[N+]([O-])c1ccc(S(=O)(=O)c2ccc(Br)cc2)nc1` [compound 35, 35] was 272 M⁻¹ s⁻¹.
Turning to `O=[N+]([O-])c1cccnc1S(=O)(=O)c1ccccc1` [compound 36, 36], the IC50 at LdtMt2 [5] (setting [8]) is 25.1 µM. Besides, the kinact/KI at LdtMt2 [6] (read-out: kinact/KI LdtMt2) was under 10 M⁻¹ s⁻¹. The “MIC Msm (µg/mL), no clavulanic acid” value in test [7] worked out at 16 µg/mL.
On to `O=S(=O)(c1ccccc1)c1ccccn1` [compound 37, 37], for which the IC50 on LdtMt2 [5] (setting [8]) is over 39.8 µM. The kinact/KI on LdtMt2 [6] (read-out: kinact/KI LdtMt2) is under 10 M⁻¹ s⁻¹. The “MIC Msm (µg/mL), no clavulanic acid” value in test [7] is over 128 µg/mL.
Consider `O=S(=O)(c1ccccc1)c1cccnc1` [compound 38, 38], for which, at LdtMt2 [5] (setting [8]), the IC50 is over 39.8 µM. Moreover, the kinact/KI at LdtMt2 [6] (read-out: kinact/KI LdtMt2) was under 10 M⁻¹ s⁻¹. Further, the “MIC Msm (µg/mL), no clavulanic acid” value in test [7] is over 128 µg/mL.
The like results for `O=S(=O)(c1ccccc1)c1ccncc1` [compound 39, 39] were, in that order, over 39.8 µM, under 10 M⁻¹ s⁻¹ and over 128 µg/mL.
In the same order, the values of `COc1ccc(S(=O)(=O)c2ccccc2)nc1` [compound 40, 40] are over 39.8 µM, under 10 M⁻¹ s⁻¹ and over 128 µg/mL.
In the same order, the values of `N#Cc1ccc(S(=O)(=O)c2ccccc2)nc1` [compound 41, 41] are 25.1 µM, under 10 M⁻¹ s⁻¹ and over 128 µg/mL.
`N#Cc1cccnc1S(=O)(=O)c1ccccc1` [compound 42, 42]: on LdtMt2 [5] (setting [8]), the IC50 is over 39.8 µM. The kinact/KI at LdtMt2 [6] (read-out: kinact/KI LdtMt2) is under 10 M⁻¹ s⁻¹. Besides, the “MIC Msm (µg/mL), no clavulanic acid” value in test [7] is over 128 µg/mL.
In the same order, the values of `O=[N+]([O-])c1ccc(Cl)nc1` [compound 43, 43] are over 39.8 µM, under 10 M⁻¹ s⁻¹ and 32 µg/mL.
In the case of `Clc1ccccn1` [compound 44, 44], the IC50 on LdtMt2 [5] was over 39.8 µM. Also, at LdtMt2 [6] (read-out: kinact/KI LdtMt2 (M^-1 s^-1)), the kinact/KI was under 10 M⁻¹ s⁻¹. Also, the “MIC Msm (µg/mL), no clavulanic acid” value in test [7] was over 128 µg/mL.
Take `Nc1ncc(S(=O)(=O)c2ccc([N+](=O)[O-])cc2)s1` [compound 45, 45]: the “MIC Msm (µg/mL), no clavulanic acid” value in test [7] was over 128 µg/mL.
Regarding `O=[N+]([O-])c1ccc(S(=O)(=O)c2ncc(C(F)(F)F)cc2Cl)cc1` [compound 46, 46], the IC50 on LdtMt2 [5] (setting [8]) is over 39.8 µM. For the same compound, on LdtMt2 [6] (read-out: kinact/KI LdtMt2), the kinact/KI was under 10 M⁻¹ s⁻¹. The “MIC Msm (µg/mL), no clavulanic acid” value in test [7] was over 128 µg/mL.
In the case of `C[C@@H](O)[C@H]1C(=O)N2C(C(=O)O)=C(S[C@@H]3CN[C@H](CNS(N)(=O)=O)C3)[C@H](C)[C@H]12` [doripenem], the “MIC Msm (µg/mL), no clavulanic acid” value in test [2] came out at 0.5 µg/mL.
Still for that read-out and setting: the value for `C[C@@H](O)[C@H]1C(=O)N2C(C(=O)O)=C(S[C@@H]3CN[C@H](C(=O)Nc4cccc(C(=O)O)c4)C3)[C@H](C)[C@H]12` [ertapenem] was 4 µg/mL.
Consider `C[C@@H](O)[C@H]1C(=O)N2C(C(=O)O)=C(S[C@@H]3CN[C@H](C(=O)N(C)C)C3)[C@H](C)[C@H]12` [meropenem], for which the “MIC Msm (µg/mL), no clavulanic acid” value in test [2] was determined as 2 µg/mL.
